Literature values as cited in US11577212B2, “Stimuli-responsive micro-reservoirs for release of encapsulants” (priority 2018, dated 2023).

Structure (SMILES) | solubility in water
CCO [ethanol] | Miscible
CCOC(C)=O [ethyl acetate] | 8.7 g/100 g
C1CCCCC1 [cyclohexane] | 0.0055 g/100 g
OCC(O)CO [glycerin] | Miscible
COCCOCCOC [diethylene glycol dimethyl ether] | Miscible
CN(C)P(N(C)C)N(C)C [Hexamethylphosphorous triamide (HMPT), Hexamethylphosphorous triamide] | Miscible
CCCCCC [hexane] | 0.0014 g/100 g
COCCOC [1,2-dimethoxy-ethane (glyme, DME), 1,2-dimethoxy-ethane] | Miscible
CCCCC [pentane] | 0.04 g/100 g
Clc1ccccc1 [chlorobenzene] | 0.05 g/100 g
